Experimental findings from the supplement of paper PMC10307832 are described below.

Common to all, as to test: relative viability (nuclei count vs DMSO), 5 days (fraction); higher = more cells survive
Compound in experiment [1]: Cc1ccc(C(=O)Nc2ccc(CN3CCN(C)CC3)c(C(F)(F)F)c2)cc1C#Cc1cnc2cccnn12 [Ponatinib] + CC(=O)c1c(C)c2cnc(Nc3ccc(N4CCNCC4)cn3)nc2n(C2CCCC2)c1=O [Palbociclib] (partner 0.5 µM)
The method in brief: (§1)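 Relative viability was taken as the ratio of nuclei in treated wells to nuclei in vehicle wells. Lung cancer cell lines in 1536-well plates received compounds by pin tool one day after seeding, either one drug alone or a fixed anchor-drug dose plus five library-drug doses (not always all listed) in √10 steps. Nuclei were counted on 4× images after 5 days of treatment, and values are medians of duplicate plates.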

Compound in experiment [2]: Cc1ccc(Nc2nccc(N(C)c3ccc4c(C)n(C)nc4c3)n2)cc1S(N)(=O)=O [Pazopanib] + CC(=O)Nc1cccc(-n2c(=O)n(C3CC3)c(=O)c3c(Nc4ccc(I)cc4F)n(C)c(=O)c(C)c32)c1 [Trametinib] (partner 0.02 µM)
The method in brief:
as §1

Compound in experiment [3]: Cc1ccc(Nc2nccc(N(C)c3ccc4c(C)n(C)nc4c3)n2)cc1S(N)(=O)=O [Pazopanib] + CC(=O)c1c(C)c2cnc(Nc3ccc(N4CCNCC4)cn3)nc2n(C2CCCC2)c1=O [Palbociclib] (partner 0.5 µM)
Summed up:
as §1

Compound in experiment [4]: Cc1ccc(Nc2nccc(N(C)c3ccc4c(C)n(C)nc4c3)n2)cc1S(N)(=O)=O [Pazopanib] + CS(=O)(=O)N1CCN(Cc2cc3nc(-c4cccc5[nH]ncc45)nc(N4CCOCC4)c3s2)CC1 [Pictilisib] (partner 1 µM)
Summed up: as §1

Take RERF-LC-KJ: the relative viability in experiment [1] (first compound 0.002 µM) was determined as 1.11; in experiment [1] (first compound 0.006325 µM) it was 1.22; in experiment [1] (first compound 0.06325 µM), 1.27; in experiment [1] (first compound 0.2 µM), 0.971; in experiment [2] (first compound 0.01 µM), 0.82; in experiment [2] (first compound 0.03162 µM) it was 0.892. Moreover, the relative viability in experiment [2] (first compound 0.1 µM) is 0.842; in experiment [2] (first compound 0.3162 µM) it was 0.805; in experiment [2] (first compound 1 µM), 0.853; in experiment [3] (first compound 0.01 µM), 1.11; in experiment [3] (first compound 0.03162 µM), 1.03; in experiment [3] (first compound 0.1 µM), 1.07. The relative viability in experiment [3] (first compound 0.3162 µM) is 1.09; in experiment [3] (first compound 1 µM), 1.04; in experiment [4] (first compound 0.01 µM), 0.447; in experiment [4] (first compound 0.03162 µM), 0.562; in experiment [4] (first compound 0.1 µM) it was 0.559; in experiment [4] (first compound 0.3162 µM) it was 0.495. For the same cell line, the relative viability in experiment [4] (first compound 1 µM) amounted to 0.487.

Take SK-LU-1: the relative viability in experiment [1] (first compound 0.002 µM) was determined as 0.378; in experiment [1] (first compound 0.006325 µM) it was 0.415; in experiment [1] (first compound 0.06325 µM) it was 0.342; in experiment [1] (first compound 0.2 µM) it was 0.353; in experiment [2] (first compound 0.01 µM) it was 0.42; in experiment [2] (first compound 0.03162 µM) it was 0.499. Besides, the relative viability worked out at 0.516 in experiment [2] (first compound 0.1 µM); 0.54 in experiment [2] (first compound 0.3162 µM); 0.54 in experiment [2] (first compound 1 µM); 0.393 in experiment [3] (first compound 0.01 µM); 0.389 in experiment [3] (first compound 0.03162 µM); 0.411 in experiment [3] (first compound 0.1 µM). For the same cell line, the relative viability in experiment [3] (first compound 0.3162 µM) turned out to be 0.425; in experiment [3] (first compound 1 µM) it was 0.455; in experiment [4] (first compound 0.01 µM), 0.434; in experiment [4] (first compound 0.03162 µM), 0.636; in experiment [4] (first compound 0.1 µM), 0.543; in experiment [4] (first compound 0.3162 µM) it was 0.633. In addition, the relative viability in experiment [4] (first compound 1 µM) was found to be 0.589.

SK-MES-1: the relative viability is 0.36 in experiment [1] (first compound 0.002 µM); 0.379 in experiment [1] (first compound 0.006325 µM); 0.405 in experiment [1] (first compound 0.06325 µM); 0.327 in experiment [1] (first compound 0.2 µM); 0.537 in experiment [2] (first compound 0.01 µM); 0.555 in experiment [2] (first compound 0.03162 µM). Further, the relative viability stood at 0.621 in experiment [2] (first compound 0.1 µM); 0.725 in experiment [2] (first compound 0.3162 µM); 0.628 in experiment [2] (first compound 1 µM); 0.334 in experiment [3] (first compound 0.01 µM); 0.352 in experiment [3] (first compound 0.03162 µM); 0.322 in experiment [3] (first compound 0.1 µM). For the same cell line, the relative viability in experiment [3] (first compound 0.3162 µM) was 0.36; in experiment [3] (first compound 1 µM) it was 0.304; in experiment [4] (first compound 0.01 µM) it was 0.39; in experiment [4] (first compound 0.03162 µM), 0.365; in experiment [4] (first compound 0.1 µM) it was 0.391; in experiment [4] (first compound 0.3162 µM) it was 0.379. Further, in experiment [4] (first compound 1 µM), the relative viability is 0.335.

In the case of SW 1573, the relative viability in experiment [1] (first compound 0.002 µM) was 0.411; in experiment [1] (first compound 0.006325 µM), 0.402; in experiment [1] (first compound 0.06325 µM) it was 0.341; in experiment [1] (first compound 0.2 µM) it was 0.401; in experiment [2] (first compound 0.01 µM) it was 0.604; in experiment [2] (first compound 0.03162 µM), 0.671. For the same cell line, the relative viability in experiment [2] (first compound 0.1 µM) stood at 0.604; in experiment [2] (first compound 0.3162 µM), 0.649; in experiment [2] (first compound 1 µM), 0.494; in experiment [3] (first compound 0.01 µM), 0.468; in experiment [3] (first compound 0.03162 µM) it was 0.349; in experiment [3] (first compound 0.1 µM), 0.454. In addition, the relative viability in experiment [3] (first compound 0.3162 µM) was found to be 0.367; in experiment [3] (first compound 1 µM), 0.365; in experiment [4] (first compound 0.01 µM) it was 0.412; in experiment [4] (first compound 0.03162 µM) it was 0.531; in experiment [4] (first compound 0.1 µM), 0.514; in experiment [4] (first compound 0.3162 µM) it was 0.632. The relative viability in experiment [4] (first compound 1 µM) was 0.537.
